≈ marks a conversion by molar mass, not a printed value.
Tests used:
Escherichia coli = assay: In vitro minimum inhibitory concentration against Escherichia coli NIHJ JC-2; type: functional
Klebsiella pneumoniae = assay: In vitro minimum inhibitory concentration against Klebsiella pneumoniae ATCC 10031; type: functional
[1] = system: Staphylococcus epidermidis; assay: In vitro minimum inhibitory concentration against Staphylococcus epidermidis IAM1296; type: functional
Staphylococcus aureus [2] = assay: In vitro minimum inhibitory concentration against Staphylococcus aureus MS9408; type: functional
Staphylococcus aureus [3] = assay: In vitro minimum inhibitory concentration against Staphylococcus aureus SP-7928; type: functional
Albumin = Albumin (Homo sapiens, UniProt P02768); assay: Binding affinity towards Human Serum albumin.
Sequence of Albumin (P02768 whole entry): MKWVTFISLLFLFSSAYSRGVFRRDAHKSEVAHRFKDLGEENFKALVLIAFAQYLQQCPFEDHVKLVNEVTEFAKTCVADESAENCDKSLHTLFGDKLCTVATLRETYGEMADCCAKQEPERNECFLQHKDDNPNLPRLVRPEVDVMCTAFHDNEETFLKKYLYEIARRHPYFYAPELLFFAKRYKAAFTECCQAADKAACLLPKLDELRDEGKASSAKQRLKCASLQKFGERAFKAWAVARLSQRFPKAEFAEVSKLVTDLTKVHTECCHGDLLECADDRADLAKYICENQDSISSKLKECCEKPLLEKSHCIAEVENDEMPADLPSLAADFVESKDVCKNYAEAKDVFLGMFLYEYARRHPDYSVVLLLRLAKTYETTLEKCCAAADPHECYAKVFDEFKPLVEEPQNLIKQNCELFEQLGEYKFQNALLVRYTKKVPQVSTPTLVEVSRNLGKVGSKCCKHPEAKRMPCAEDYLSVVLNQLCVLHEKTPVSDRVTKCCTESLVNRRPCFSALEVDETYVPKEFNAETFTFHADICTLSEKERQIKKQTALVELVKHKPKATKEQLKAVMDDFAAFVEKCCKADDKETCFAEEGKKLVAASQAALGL

Staphylococcus aureus [4] = assay: In vitro minimum inhibitory concentration against Staphylococcus aureus 209p; type: functional
[5] = target: T1, Dipeptidase 1 (Sus scrofa) (UniProt P22412); assay: Time of enzyme-catalyzed hydrolysis from 500 uM to 400 uM in the presence of purified renal DHP-1 of swine
T1 sequence (whole entry): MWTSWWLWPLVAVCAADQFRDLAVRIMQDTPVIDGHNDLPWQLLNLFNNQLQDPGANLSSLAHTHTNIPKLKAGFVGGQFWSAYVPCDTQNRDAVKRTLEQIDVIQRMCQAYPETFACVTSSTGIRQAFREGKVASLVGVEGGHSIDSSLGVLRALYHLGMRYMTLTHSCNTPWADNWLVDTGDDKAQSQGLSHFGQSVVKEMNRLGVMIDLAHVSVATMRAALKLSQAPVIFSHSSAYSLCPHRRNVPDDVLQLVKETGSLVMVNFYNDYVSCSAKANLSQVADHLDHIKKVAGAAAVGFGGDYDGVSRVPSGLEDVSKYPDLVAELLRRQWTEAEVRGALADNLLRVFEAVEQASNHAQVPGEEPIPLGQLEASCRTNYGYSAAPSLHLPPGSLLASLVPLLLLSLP

SMILES | MIC (Escherichia coli) [µg/mL] | MIC (Klebsiella pneumoniae) [µg/mL] | MIC [1] [µg/mL] | MIC (Staphylococcus aureus [2]) [µg/mL] | MIC (Staphylococcus aureus [3]) [µg/mL] | Binding (Albumin) [%] | MIC (Staphylococcus aureus [4]) [µg/mL] | TIME [5] [h]
C[C@@H](O)[C@H]1C(=O)N2C(C(=O)[O-])=C(Sc3nc(-c4ccc[n+](C)c4)cs3)[C@H](C)[C@H]12 | 0.39 (≈ 0.934 µM) | 0.05 (≈ 0.12 µM) | 0.025 (≈ 0.0599 µM) | 0.2 (≈ 0.479 µM) | 1.56 (≈ 3.74 µM) | 7.8 | < 0.013 | 0.467
CCCc1csc(SC2=C(C(=O)O)N3C(=O)[C@H]([C@@H](C)O)[C@H]3[C@H]2C)n1 | 12.5 (≈ 33.9 µM) | 0.2 (≈ 0.543 µM) | 0.05 (≈ 0.136 µM) | 0.39 (≈ 1.06 µM) | 3.13 (≈ 8.49 µM) | 96 | 0.025 (≈ 0.0678 µM) | 0.2
C[C@@H](O)[C@H]1C(=O)N2C(C(=O)O)=C(Sc3ncc(-c4ccccc4)s3)[C@H](C)[C@H]12 | 25 (≈ 62.1 µM) | 0.39 (≈ 0.969 µM) | 0.39 (≈ 0.969 µM) | 0.39 (≈ 0.969 µM) | 12.5 (≈ 31.1 µM) | > 94 | < 0.006 | 0.25
C[C@@H](O)[C@H]1C(=O)N2C(C(=O)[O-])=C(Sc3nc(-c4ccc5cc[n+](C)cc5c4)cs3)[C@H](C)[C@H]12 | 3.13 (≈ 6.69 µM) | 0.05 (≈ 0.107 µM) | 0.013 (≈ 0.0278 µM) | 0.05 (≈ 0.107 µM) | 0.78 (≈ 1.67 µM) | 59 | < 0.006 | 0.2
C[C@@H](O)[C@H]1C(=O)N2C(C(=O)O)=C(Sc3nccs3)[C@H](C)[C@H]12 | 0.78 (≈ 2.39 µM) | 0.05 (≈ 0.153 µM) | 0.1 (≈ 0.306 µM) | 0.78 (≈ 2.39 µM) | 12.5 (≈ 38.3 µM) | 69 | 0.025 (≈ 0.0766 µM) | 0.25
C[C@@H](O)[C@H]1C(=O)N2C(C(=O)O)=C(SCCN=CN)C[C@H]12 [IMIPENEM ANHYDROUS] |  |  |  |  |  | < 10 |  | 
C[C@@H](O)[C@H]1C(=O)N2C(C(=O)O)=C(Sc3nc4ccccc4s3)[C@H](C)[C@H]12 | 25 (≈ 66.4 µM) | 0.78 (≈ 2.07 µM) | 0.2 (≈ 0.531 µM) | 0.78 (≈ 2.07 µM) | 3.13 (≈ 8.31 µM) | > 94 | 0.025 (≈ 0.0664 µM) | 
Cc1nc(SC2=C(C(=O)O)N3C(=O)[C@H]([C@@H](C)O)[C@H]3[C@H]2C)sc1C | 3.13 (≈ 8.83 µM) | 0.2 (≈ 0.564 µM) | 0.1 (≈ 0.282 µM) | 0.78 (≈ 2.2 µM) | 6.25 (≈ 17.6 µM) | > 75 | 0.025 (≈ 0.0705 µM) | 0.383
C[C@@H](O)[C@H]1C(=O)N2C(C(=O)O)=C(SCCNC=N)C[C@H]12 [IMIPENEM ANHYDROUS] | 0.1 (≈ 0.334 µM) | 0.1 (≈ 0.334 µM) | 0.2 (≈ 0.668 µM) | 0.78 (≈ 2.61 µM) | 50 (≈ 167 µM) |  | 0.013 (≈ 0.0434 µM) | 0.2
C[C@@H](O)[C@H]1C(=O)N2C(C(=O)[O-])=C(Sc3nc(-c4cc[n+](CC(N)=O)cc4)cs3)[C@H](C)[C@H]12 | 0.2 (≈ 0.434 µM) | 0.025 (≈ 0.0543 µM) | 0.05 (≈ 0.109 µM) | 0.2 (≈ 0.434 µM) | 1.56 (≈ 3.39 µM) | 15 | < 0.006 | 0.35
C[C@@H](O)[C@H]1C(=O)N2C(C(=O)[O-])=C(Sc3nc(-c4ccc[n+](CC(N)=O)c4)cs3)[C@H](C)[C@H]12 | 0.39 (≈ 0.847 µM) | 0.05 (≈ 0.109 µM) | 0.025 (≈ 0.0543 µM) | 0.2 (≈ 0.434 µM) | 1.56 (≈ 3.39 µM) | 24 | < 0.006 | 0.283

More lines, now with the values ahead:

MIC (Escherichia coli) [µg/mL] | MIC (Klebsiella pneumoniae) [µg/mL] | MIC [1] [µg/mL] | MIC (Staphylococcus aureus [2]) [µg/mL] | MIC (Staphylococcus aureus [3]) [µg/mL] | Binding (Albumin) [%] | MIC (Staphylococcus aureus [4]) [µg/mL] | TIME [5] [h] | SMILES
12.5 (≈ 30 µM) | 0.39 (≈ 0.936 µM) | 0.025 (≈ 0.06 µM) | 0.2 (≈ 0.48 µM) | 3.13 (≈ 7.51 µM) | > 94 | < 0.006 | 0.153 | Cc1ccc(-c2csc(SC3=C(C(=O)O)N4C(=O)[C@H]([C@@H](C)O)[C@H]4[C@H]3C)n2)cc1
12.5 (≈ 28.6 µM) | 0.2 (≈ 0.458 µM) | 0.025 (≈ 0.0572 µM) | 0.2 (≈ 0.458 µM) | 1.56 (≈ 3.57 µM) | > 94 | < 0.013 | 0.165 | C[C@@H](O)[C@H]1C(=O)N2C(C(=O)O)=C(Sc3nc(-c4ccc(Cl)cc4)cs3)[C@H](C)[C@H]12
6.25 (≈ 15.5 µM) | 0.05 (≈ 0.124 µM) | 0.025 (≈ 0.062 µM) | 0.2 (≈ 0.496 µM) | 1.56 (≈ 3.87 µM) | 97 | < 0.013 | 0.0533 | C[C@@H](O)[C@H]1C(=O)N2C(C(=O)O)=C(Sc3nc(-c4cccnc4)cs3)[C@H](C)[C@H]12
6.25 (≈ 15 µM) | 0.05 (≈ 0.12 µM) | 0.025 (≈ 0.0599 µM) | 0.2 (≈ 0.479 µM) | 1.56 (≈ 3.74 µM) | 98 | < 0.013 | 0.3 | C[C@@H](O)[C@H]1C(=O)N2C(C(=O)O)=C(Sc3nc(-c4ccc(N)cc4)cs3)[C@H](C)[C@H]12
1.56 (≈ 3.61 µM) | 0.2 (≈ 0.463 µM) | 0.025 (≈ 0.0579 µM) | 0.2 (≈ 0.463 µM) | 1.56 (≈ 3.61 µM) | 87 | < 0.006 |  | C[C@@H](O)[C@H]1C(=O)N2C(C(=O)O)=C(Sc3nc(-c4ccc(CN)cc4)cs3)[C@H](C)[C@H]12
0.39 (≈ 0.934 µM) | 0.025 (≈ 0.0599 µM) | 0.025 (≈ 0.0599 µM) | 0.1 (≈ 0.24 µM) | 1.56 (≈ 3.74 µM) | 12 | < 0.006 | 0.383 | C[C@@H](O)[C@H]1C(=O)N2C(C(=O)[O-])=C(Sc3nc(-c4cc[n+](C)cc4)cs3)[C@H](C)[C@H]12
6.25 (≈ 15.5 µM) | 0.2 (≈ 0.496 µM) | 0.05 (≈ 0.124 µM) | 0.2 (≈ 0.496 µM) | 3.13 (≈ 7.76 µM) | 97 | < 0.013 | 0.267 | C[C@@H](O)[C@H]1C(=O)N2C(C(=O)O)=C(Sc3nc(-c4ccncc4)cs3)[C@H](C)[C@H]12
12.5 (≈ 27.6 µM) | 0.2 (≈ 0.441 µM) | 0.025 (≈ 0.0551 µM) | 0.1 (≈ 0.22 µM) | 0.78 (≈ 1.72 µM) | 99 | < 0.006 | 0.162 | C[C@@H](O)[C@H]1C(=O)N2C(C(=O)O)=C(Sc3nc(-c4ccc5ccncc5c4)cs3)[C@H](C)[C@H]12
6.25 (≈ 14 µM) | 0.1 (≈ 0.224 µM) | 0.025 (≈ 0.0561 µM) | 0.2 (≈ 0.449 µM) | 1.56 (≈ 3.5 µM) | 99 | < 0.006 | 0.2 | C[C@@H](O)[C@H]1C(=O)N2C(C(=O)O)=C(Sc3nc(-c4ccc(C(N)=O)cc4)cs3)[C@H](C)[C@H]12
3.13 (≈ 9.19 µM) | 0.05 (≈ 0.147 µM) | 0.05 (≈ 0.147 µM) | 0.39 (≈ 1.15 µM) | 3.13 (≈ 9.19 µM) | 93 | 0.025 (≈ 0.0734 µM) | 0.217 | Cc1csc(SC2=C(C(=O)O)N3C(=O)[C@H]([C@@H](C)O)[C@H]3[C@H]2C)n1
6.25 (≈ 15.5 µM) | 0.1 (≈ 0.248 µM) | 0.025 (≈ 0.0621 µM) | 0.1 (≈ 0.248 µM) | 0.78 (≈ 1.94 µM) | > 94 | < 0.013 | 0.163 | C[C@@H](O)[C@H]1C(=O)N2C(C(=O)O)=C(Sc3nc(-c4ccccc4)cs3)[C@H](C)[C@H]12
